In assay [1] the test system is MCF7. Nature of the assay: Antiproliferative activity against human MCF7 cells incubated for 24 hrs by MTT assay. The class given is functional, cell-based. The note with it: MCF7, 24 h.
The test system of a further assay is L02. Nature of the assay: Cytotoxicity against human L02 cells. The class given is cell-based.
Assay [2] deals with HeLa. Nature of the assay: Antiproliferative activity against human HeLa cells incubated for 24 hrs by MTT assay. The class given is functional, cell-based. Background: Tetrazolium assays rely on reduction of a dye to a coloured formazan, in cell work by metabolically active cells.
Assay [3] has as its system HepG2. The assay can be described thus: Antiproliferative activity against human HepG2 cells incubated for 24 hrs by MTT assay. The settings on record: HepG2, 24 h. Format: functional, cell-based.
For assay [4], the system named is A549. The assay can be described thus: Antiproliferative activity against human A549 cells incubated for 24 hrs by MTT assay. Format: functional, cell-based. The settings on record: A549, 24 h.
For assay [5], the system named is HeLa. The assay can be described thus: Antiproliferative activity against human HeLa cells incubated for 72 hrs by MTT assay. Format: functional, cell-based.
In assay [6] the test system is A549. Nature of the assay: Antiproliferative activity against human A549 cells incubated for 72 hrs by MTT assay. The settings on record: A549, 72 h. Format: functional, cell-based.
A further assay deals with B16-F10. The assay can be described thus: Antiproliferative activity against mouse B16/F10 cells incubated for 72 hrs by MTT assay. Format: functional, cell-based. The note with it: B16-F10, 72 h.
A further assay relates to SK-OV-3. The assay can be described thus: Antiproliferative activity against human SK-OV-3 cells incubated for 72 hrs by MTT assay. Format: functional, cell-based. The settings on record: SK-OV-3, 72 h.
A further assay has as its system CT26. The assay can be described thus: Antiproliferative activity against […] cells incubated for 72 hrs by MTT assay. The class given is functional, cell-based. The note with it: Mus musculus, CT26, 72 h.
The subject of assay [7] is MCF7. The assay can be described thus: Antiproliferative activity against human MCF7 cells incubated for 72 hrs by MTT assay. The note with it: MCF7, 72 h. The class given is functional, cell-based.
The test system of assay [8] is HepG2. Nature of the assay: Antiproliferative activity against human HepG2 cells incubated for 72 hrs by MTT assay. Format: functional, cell-based. The settings on record: HepG2, 72 h.
The subject of assay [9] is A549. The assay can be described thus: Antiproliferative activity against human A549 cells incubated for 48 hrs by MTT assay. Format: functional, cell-based. The settings on record: A549, 48 h.
Assay [10] concerns MCF7. Nature of the assay: Antiproliferative activity against human MCF7 cells incubated for 48 hrs by MTT assay. The note with it: MCF7, 48 h. Format: functional, cell-based.
A further assay has as its system Huh-7. The assay can be described thus: Antiproliferative activity against human Huh7 cells incubated for 48 hrs by MTT assay. Format: functional, cell-based. The settings on record: Huh-7, 48 h.
The subject of assay [11] is HeLa. Nature of the assay: Antiproliferative activity against human HeLa cells incubated for 48 hrs by MTT assay. Format: functional, cell-based.
The subject of assay [12] is BGC-823. The assay can be described thus: Antiproliferative activity against human BGC-823 cells incubated for 48 hrs by MTT assay. Format: functional, cell-based. The note with it: BGC-823, 48 h.
Another assay has as its system K562/VCR. Nature of the assay: Cytotoxicity against human K562/VCR cells incubated for 72 hrs by CCK8 assay. Format: functional, cell-based.
Assay [13] deals with K562. The assay can be described thus: Cytotoxicity against human K562 cells incubated for 72 hrs by CCK8 assay. The note with it: K562, 72 h. Format: functional, cell-based.
The next assay relates to K562/A02. The assay can be described thus: Antiproliferative activity against human K562/A02 cells by MTT assay. The class given is functional, cell-based.
In assay [14] the test system is HeLa. The assay can be described thus: Antiproliferative activity against human HeLa cells by MTT assay. The class given is functional, cell-based.
Assay [15] deals with MCF7. Nature of the assay: Cytotoxicity against human MCF7 cells by MTT assay. Format: functional, cell-based.
Assay [16] is described as follows: Resistance index, ratio of IC50 for human K562/ADR cells to IC50 for human K562 cells. The class given is functional.
Assay [17] deals with K562. The assay can be described thus: Potency index, ratio of doxorubicin IC50 to compound IC50 for human K562 cells. Format: functional.
The subject of assay [18] is K562/Adr. The assay can be described thus: Cytotoxicity against human K562/ADR cells incubated for 72 hrs by CCK8 assay. The class given is functional, cell-based.
In assay [19] the test system is K562/Adr. The assay can be described thus: Potency index, ratio of doxorubicin IC50 to compound IC50 for human K562/ADR cells. The class given is functional.
The subject of assay [20] is BGC-823. Nature of the assay: Antiproliferative activity against human BGC-823 cells incubated for 72 hrs by MTT assay. The note with it: BGC-823, 72 h. Format: functional, cell-based.
Another assay relates to MKN-45. Nature of the assay: Antiproliferative activity against human MKN-45 cells incubated for 72 hrs by MTT assay. Format: functional, cell-based. The note with it: Homo sapiens, MKN-45, 72 h.

For orientation: IC50 means the concentration needed to halve the response being measured.

In the case of `COc1ccc(-c2nnc(SCC(=O)O[C@H]3c4cc5c(cc4[C@@H](c4cc(OC)c(OC)c(OC)c4)[C@H]4C(=O)OC[C@@H]43)OCO5)o2)cc1`, the IC50 worked out at 2.54 µM in the assay with MCF7 [1]; 92.4 µM in the assay on L02; 2.54 µM in the assay with HeLa [2]; 2.54 µM in the assay with HepG2 [3]; 2.54 µM in the assay with A549 [4].
For the compound `COc1ccc(-c2coc3cc(OCCCCC(=O)O[C@@H]4c5cc6c(cc5[C@@H](c5cc(OC)c(OC)c(OC)c5)[C@H]5C(=O)OC[C@@H]54)OCO6)ccc3c2=O)cc1`, the IC50 in the assay on HeLa [5], in the assay with A549 [6], with B16-F10, with SK-OV-3, in the assay with CT26 and in the assay with MCF7 [7] was 0.213 µM each time. This compound gave a half-inhibitory concentration (IC50) in the assay with HepG2 [8] of 0.213 µM.
For `COc1cc([C@@H]2c3cc4c(cc3[C@@H](Nc3ncccc3C)[C@H]3COC(=O)[C@H]23)OCO4)cc(OC)c1OC`, the IC50 in the assay with A549 [9], in the assay on MCF7 [10], in the assay on Huh-7, in the assay on HeLa [11] and in the assay with BGC-823 [12] was 0.06 µM each time.
With `COc1cc([C@@H]2c3cc4c(cc3[C@H](OC(=O)c3ccc5[nH]ccc5c3)[C@H]3COC(=O)[C@H]23)OCO4)cc(OC)c1OC`, the IC50 with K562/VCR and with K562 [13] was 0.081 µM throughout.
Consider `COc1cc([C@@H]2c3cc4c(cc3[C@@H](NCc3cc5cc(F)ccc5[nH]3)[C@H]3COC(=O)[C@H]23)OCO4)cc(OC)c1OC`, for which the IC50 in the assay with K562/A02 and with HeLa [14] was 0.1 µM throughout.
With `COc1cc([C@@H]2c3cc4c(cc3[C@H](OC(=O)Cc3c[nH]c5ccccc35)[C@H]3COC(=O)[C@H]23)OCO4)cc(OC)c1OC`, the concentration for half-maximal inhibition (IC50) came out at 0.202 µM with K562/VCR and 0.043 µM with K562 [13].
In the case of `COc1ccc2[nH]c(CN[C@@H]3c4cc5c(cc4[C@@H](c4cc(OC)c(OC)c(OC)c4)[C@H]4C(=O)OC[C@@H]43)OCO5)cc2c1`, the IC50 in the assay on K562/A02 and in the assay on HeLa [14] was 0.1 µM each time.
Turning to `COc1ccc2c(c1)cc(/C=N/[C@@H]1c3cc4c(cc3[C@@H](c3cc(OC)c(OC)c(OC)c3)[C@H]3C(=O)OC[C@@H]31)OCO4)n2Cc1ccccc1F`, half-maximal inhibition with HeLa [14] (IC50) required 0.65 µM.
`COc1cc([C@@H]2c3cc4c(cc3[C@@H](OCc3cn([C@@H]5O[C@H](COC(C)=O)[C@H](OC(C)=O)[C@H](OC(C)=O)[C@H]5OC(C)=O)nn3)[C@H]3COC(=O)[C@H]23)OCO4)cc(OC)c1OC` registered an IC50 in the assay with MCF7 [15] of 1.25 µM.
Consider `COc1cc([C@@H]2c3cc4c(cc3[C@H](OC(=O)CSc3nnc(-c5ccc(Br)cc5)o3)[C@H]3COC(=O)[C@H]23)OCO4)cc(OC)c1OC`, for which the IC50 in the assay with MCF7 [1] is 2.54 µM; in the assay on L02, 79.6 µM; in the assay with HeLa [2] it was 2.54 µM; in the assay with HepG2 [3], 2.54 µM; in the assay with A549 [4] it was 2.54 µM.
For `COc1ccc(/C=C/C(=O)O[C@@H]2c3cc4c(cc3[C@@H](c3cc(OC)c(OC)c(OC)c3)[C@H]3C(=O)OC[C@@H]32)OCO4)cc1OC`, the “Ratio IC50” value is 1.1 in [16], 2.2 in the assay with K562 [17] and 2.2 in the assay on K562/Adr [19]. Also, the IC50 in the assay with K562 [13] and in the assay with K562/Adr [18] was 0.011 µM throughout.
In the case of `CC1=C(/C=C/C(C)=C/C=C/C(C)=C/C(O)O)C(C)(C)CCC1`, the IC50 in the assay on BGC-823 [20] worked out at 83.1 µM; in the assay on MKN-45, 88.5 µM.

For the origin of these results see ChEMBL document CHEMBL4818987, “Recent advances of podophyllotoxin/epipodophyllotoxin hybrids in anticancer activity, mode of action, and structure-activity relationship: An update (2010-2020)” (Eur J Med Chem, 2020).
